Data on three molecules can be found in paper PMC7904790 (Nature Communications, 2021).

Like-named read-outs stand apart in the source and are kept apart here.

A short description of one data set: in vitro. More on the design: CellTiter-Glo viability of parental Ba/F3 cells with IL-3 (counter-screen). The note with it: mouse, parental ba/f3 cells +il-3; with IL-3; read-out: IC50 parental Ba/F3 (+IL-3). The protocol:
To identify drugs that can overcome these mutations, we screened our focused 90-inhibitor library using Ba/F3 cells expressing EML4-ALK I1171N + F1174I and I1171N + L1198H. At a concentration of 50 nM, gilteritinib suppressed the viability of both wild-type (WT) and compound mutant Ba/F3 cells (Fig. 1a). Since gilteritinib has reported as multi-kinase inhibitor, we first evaluated whether the ALK inhibitory efficacy of gilteritinib is driven by on-target activity or not. As a result of western blot analysis, gilteritinib suppressed the autophosphorylation of ALK in EML4-ALK-expressing Ba/F3 cells (Fig. 1b and Supplementary Fig. 1). […] As well as Ba/F3 cell model, we verified the activity of gilteritinib to H3122 cell line that is EML4-ALK-positive NSCLC cells. […] Then, the inhibitory concentration of gilteritinib is matched between ALK phosphorylation and its downstream signals. […] Further, using the phosphoproteomics data, kinase substrate-enrichment analysis (KSEA) predicted activate kinase candidates as potential gilteritinib targets and identified ALK as the most likely regulated protein (Fig. 1e, Supplementary Figs. 3 and 4, and Supplementary Table 2).  Fig. 1 Identification of gilteritinib as an inhibitor of ALK-rearranged cancer cells. a Relative cell viability of parental (with IL-3), EML4-ALK wild-type (WT), EML4-ALK I1171N + F1174I, and EML4-ALK I1171N + L1198H Ba/F3 cells treated with 50 nM of the indicated inhibitors. Cell viability was analyzed using the CellTiter-Glo assay and calculated relative to the viability of dimethyl sulfoxide-treated Ba/F3 cells. b The suppression of phospho-ALK in I1171N + F1174I, I1171N + L1198H mutation-expressing Ba/F3 cells was evaluated using western blotting. Cells were treated with the indicated concentrations of gilteritinib for 3 h (n = 2). c The suppression of phospho-ALK and its downstream signals in H3122 parental cells and I1171N + F1174I compound mutation-expressing cells were evaluated using western blotting. […] N = 3 independent samples examined over three independent experiments and representative experiment data are presented as mean values ± SD. e Volcano plot displaying the −log10 (p-value) versus log2 (gilteritinib treatment/DMSO treatment) for all quantified phosphopeptides. The red diamond indicates phospho-ALK.

The next data set deals with H3122. Nature of the data set: cells. The note with it: Homo sapiens, NCI-H3122, 72 h; read-out: Entrectinib IC50. More on the design: CellTiter-Glo viability of fusion-positive human cancer cell lines.
In a further data set the test system is KARPAS299. The data set is described as follows: cells. More on the design: CellTiter-Glo viability of fusion-positive human cancer cell lines. The note with it: Homo sapiens, KARPAS-299, 72 h.
The test system of a further data set is MCC-003. Nature of the data set: cells. More on the design: CellTiter-Glo viability of fusion-positive human cancer cell lines. The note with it: 72 h; read-out: Entrectinib IC50.
Another data set has as its system KM12. The data set is described as follows: cells. Also noted: CellTiter-Glo viability of fusion-positive human cancer cell lines. The following applies: Homo sapiens, KM12, 72 h.
In the next data set the test system is JFCR-028-3. The data set is described as follows: cells. More on the design: CellTiter-Glo viability of fusion-positive human cancer cell lines. The note with it: 72 h; read-out: Entrectinib IC50.
For data set [1], the target named is T1, NTRK1 (Homo sapiens, UniProt P04629, G667C).
T1 construct: TPM3-NTRK1 fusion expressed in Ba/F3 cells
T1 sequence (P04629 405-796 G667C limits assumed): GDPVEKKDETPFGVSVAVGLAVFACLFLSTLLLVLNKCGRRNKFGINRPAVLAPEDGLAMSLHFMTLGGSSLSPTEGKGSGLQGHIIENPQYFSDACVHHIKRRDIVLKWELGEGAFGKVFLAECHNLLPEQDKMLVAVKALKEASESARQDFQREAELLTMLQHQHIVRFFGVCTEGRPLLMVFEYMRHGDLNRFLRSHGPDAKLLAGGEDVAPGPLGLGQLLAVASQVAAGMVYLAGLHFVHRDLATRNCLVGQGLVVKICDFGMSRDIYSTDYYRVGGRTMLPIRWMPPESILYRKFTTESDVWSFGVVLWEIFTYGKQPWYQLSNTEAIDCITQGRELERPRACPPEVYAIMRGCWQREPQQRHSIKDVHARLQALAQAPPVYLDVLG
Nature of the data set: NTRK1 autophosphorylation western blot in Ba/F3 cells. In kind it is cell-based. For orientation: Immunoblotting shows a protein as a band on a membrane.

In data set [2] the target is T2, NTRK1 (Homo sapiens, UniProt P04629).
T2 construct: TPM3-NTRK1 fusion in cells
T2 sequence (P04629 416-796 limits assumed): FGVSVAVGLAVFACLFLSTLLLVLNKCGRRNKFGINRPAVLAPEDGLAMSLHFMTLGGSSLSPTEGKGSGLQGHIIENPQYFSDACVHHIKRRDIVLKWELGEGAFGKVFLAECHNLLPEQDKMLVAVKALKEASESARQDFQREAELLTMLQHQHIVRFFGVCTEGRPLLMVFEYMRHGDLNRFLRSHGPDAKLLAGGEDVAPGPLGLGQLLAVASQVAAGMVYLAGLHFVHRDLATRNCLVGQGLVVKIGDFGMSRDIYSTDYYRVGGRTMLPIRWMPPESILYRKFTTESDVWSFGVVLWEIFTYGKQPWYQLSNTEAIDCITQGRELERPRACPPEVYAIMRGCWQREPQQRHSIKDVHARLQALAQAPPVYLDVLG
Nature of the data set: phospho-NTRK1 western blot in KM12 / Ba/F3 cells. It is filed as cell-based.

A further data set has as its target T3, EML4-ALK (Homo sapiens, UniProt Q9UM73, I1171N/F1174I).
T3 construct: EML4-ALK fusion expressed in Ba/F3 and H3122 cells
The data set is described as follows: phospho-ALK western blot in cells. It is filed as cell-based.

T3 sequence (Q9UM73 1058-1620 I1171N/F1174I limits assumed): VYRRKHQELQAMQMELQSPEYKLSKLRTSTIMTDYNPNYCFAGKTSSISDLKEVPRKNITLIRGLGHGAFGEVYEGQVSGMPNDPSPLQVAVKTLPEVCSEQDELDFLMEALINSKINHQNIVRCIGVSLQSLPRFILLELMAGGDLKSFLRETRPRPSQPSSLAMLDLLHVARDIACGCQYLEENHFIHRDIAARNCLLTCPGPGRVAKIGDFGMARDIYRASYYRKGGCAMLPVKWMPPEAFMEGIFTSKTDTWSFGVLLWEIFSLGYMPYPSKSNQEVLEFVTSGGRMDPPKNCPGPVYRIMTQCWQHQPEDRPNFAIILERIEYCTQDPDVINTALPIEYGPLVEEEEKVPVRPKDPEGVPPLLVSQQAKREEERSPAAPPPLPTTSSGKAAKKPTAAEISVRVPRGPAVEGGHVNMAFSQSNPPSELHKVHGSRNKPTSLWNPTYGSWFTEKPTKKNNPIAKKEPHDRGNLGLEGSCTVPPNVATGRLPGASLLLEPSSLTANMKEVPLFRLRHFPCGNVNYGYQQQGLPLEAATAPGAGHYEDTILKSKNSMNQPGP

Usually IC50 stands for the point on the concentration scale where inhibition reaches its midpoint. In the case of `CN1CCN(c2ccc(C(=O)Nc3n[nH]c4ccc(Cc5cc(F)cc(F)c5)cc34)c(NC3CCOCC3)c2)CC1` [Entrectinib], the CC50 at 72 h in “in vitro” stood at 0.481 ± 0.089 µM. For the same molecule, the IC50 was 0.044 ± 0.012 µM in the data set on H3122; 0.042 ± 0.0085 µM in the data set with KARPAS299 (read-out: Entrectinib IC50); 0.496 ± 0.147 µM with MCC-003; 0.0026 ± 0.00028 µM in the data set on KM12 (read-out: Entrectinib IC50); 0.044 ± 0.017 µM in the data set on JFCR-028-3.
As to `CCc1nc(C(N)=O)c(Nc2ccc(N3CCC(N4CCN(C)CC4)CC3)c(OC)c2)nc1NC1CCOCC1` [gilteritinib], the CC50 at 72 h in the data set “in vitro” is 0.177 ± 0.0049 µM. In addition, the “NTRK1 autophosphorylation western blot in Ba/F3 cells” value at NTRK1 [1] is given as “gilteritinib, but not entrectinib, inhibited the autophosphorylation of NTRK1 in TPM3-NTRK1 G667C-mutant Ba/F3 cells at a low concentration”. Also, at NTRK1 [2], the “phospho-NTRK1 western blot in KM12 / Ba/F3 cells” value is on record as ~ 30 nM. Moreover, the “phospho-ALK western blot in cells” value on EML4-ALK is less than 30 nM.
Regarding `C[C@H]1Oc2cc(cnc2N)-c2c(nn(C)c2C#N)CN(C)C(=O)c2ccc(F)cc21` [lorlatinib], the CC50 at 72 h in “in vitro” worked out at 8.24 ± 2.41 µM. Also, the IC50 in the data set with KARPAS299 (read-out: Lorlatinib IC50) stood at 0.0023 ± 0.001 µM; in the data set on KM12 (read-out: Lorlatinib IC50) it was 0.138 ± 0.006 µM.
